One may read the IC50 as the concentration at which inhibition is half-maximal. As usually defined, the EC50 is the midpoint of the concentration-response curve. For orientation: CC50 means the concentration that lowers cell viability or growth by half. In general, AC50 refers to the midpoint of the concentration-response curve, whichever way the signal moves.

For one data set, the target named is Prothrombin (Homo sapiens, UniProt P00734). Briefly: Thrombin 1536 HTS Dose Response Confirmation. [Related pubchem assays: 1046 (Thrombin 1536 HTS; hits were confirmed in this assay)]. It is filed as functional.
The target of another data set is T1, Coagulation factor XII (Homo sapiens, UniProt P00748).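 Also: activated factor XIIa alpha cleaving a fluorogenic AMC peptide substrate; inhibitor potency from loss of enzyme activity.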
T1 sequence (P00748 whole entry): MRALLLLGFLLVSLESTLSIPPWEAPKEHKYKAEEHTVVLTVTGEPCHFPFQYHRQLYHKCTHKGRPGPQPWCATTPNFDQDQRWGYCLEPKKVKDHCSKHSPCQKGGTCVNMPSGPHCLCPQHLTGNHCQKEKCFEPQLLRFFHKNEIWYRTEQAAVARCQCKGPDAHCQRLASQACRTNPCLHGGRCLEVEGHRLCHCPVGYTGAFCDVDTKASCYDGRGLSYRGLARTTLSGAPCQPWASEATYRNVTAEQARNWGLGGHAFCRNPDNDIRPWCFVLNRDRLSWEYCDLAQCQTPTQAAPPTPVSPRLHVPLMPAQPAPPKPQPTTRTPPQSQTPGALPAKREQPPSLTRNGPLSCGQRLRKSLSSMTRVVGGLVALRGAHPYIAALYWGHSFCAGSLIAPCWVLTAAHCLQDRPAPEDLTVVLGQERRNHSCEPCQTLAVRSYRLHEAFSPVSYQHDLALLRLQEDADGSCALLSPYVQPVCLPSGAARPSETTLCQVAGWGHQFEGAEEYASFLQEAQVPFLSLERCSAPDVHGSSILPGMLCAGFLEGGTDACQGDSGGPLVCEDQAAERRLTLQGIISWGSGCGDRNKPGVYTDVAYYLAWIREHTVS
It is filed as functional.

Data set [1] has as its target T2, Short transient receptor potential channel 4 (Mus musculus, UniProt Q9QUQ5).
T2 sequence (Q9QUQ5 whole entry): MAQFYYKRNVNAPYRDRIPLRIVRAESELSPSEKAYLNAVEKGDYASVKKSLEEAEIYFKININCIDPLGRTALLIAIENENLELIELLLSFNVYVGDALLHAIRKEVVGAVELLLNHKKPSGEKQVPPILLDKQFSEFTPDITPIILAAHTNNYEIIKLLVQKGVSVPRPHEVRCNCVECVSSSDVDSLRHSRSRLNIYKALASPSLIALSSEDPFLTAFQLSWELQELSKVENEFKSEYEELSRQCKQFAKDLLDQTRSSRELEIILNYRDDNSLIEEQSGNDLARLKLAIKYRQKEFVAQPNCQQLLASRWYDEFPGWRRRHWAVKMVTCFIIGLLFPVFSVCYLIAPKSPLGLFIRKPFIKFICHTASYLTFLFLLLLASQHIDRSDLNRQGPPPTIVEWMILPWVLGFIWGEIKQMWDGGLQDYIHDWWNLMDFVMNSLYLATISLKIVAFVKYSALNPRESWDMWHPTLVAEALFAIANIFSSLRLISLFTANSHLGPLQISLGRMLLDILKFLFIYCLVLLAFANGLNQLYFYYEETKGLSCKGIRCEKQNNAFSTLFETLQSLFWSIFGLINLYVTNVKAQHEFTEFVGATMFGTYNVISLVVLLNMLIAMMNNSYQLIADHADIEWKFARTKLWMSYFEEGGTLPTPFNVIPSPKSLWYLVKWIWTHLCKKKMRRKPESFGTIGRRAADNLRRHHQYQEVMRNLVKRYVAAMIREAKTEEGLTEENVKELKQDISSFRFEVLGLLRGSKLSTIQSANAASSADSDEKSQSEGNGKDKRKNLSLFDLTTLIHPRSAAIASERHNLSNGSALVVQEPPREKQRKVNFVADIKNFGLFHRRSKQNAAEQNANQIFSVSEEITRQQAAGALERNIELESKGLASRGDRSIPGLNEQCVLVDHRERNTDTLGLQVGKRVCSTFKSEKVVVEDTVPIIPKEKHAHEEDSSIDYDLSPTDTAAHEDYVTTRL
Put plainly: block of DAMGO-driven TRPC4 calcium entry – cell-based, HEK293 TRPC4/mu-opioid, Fluo-4 calcium, dose response (AID 434942).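 Also: potency of inhibitors blocking the TRPC4 calcium response.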 Format: functional.

Data set [2] can be described thus: fluconazole-exposed Candida albicans growth modulators – fluorescence, retest, confirmation (AID 2467). Format: functional, cell-based.
Data set [3] can be described thus: Trypanosoma cruzi growth suppression in host cells – NIH3T3 host cells, beta-gal luminescence, confirmation (AID 2044).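 Also: intracellular parasites grown in NIH/3T3 mouse fibroblasts as host cells; luminescent beta-galactosidase reporter signal from transgenic T. cruzi replicating inside host cells; inhibitors lower the luminescence signal.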 It is filed as functional, cell-based.
Data set [4] has as its system Vero. Put plainly: cells. It is filed as functional. The following applies: Chlorocebus sabaeus.
The subject of another data set is Streptococcus. Briefly: GAS UMAA2166 growth inhibition – luminescence, BacTiterGlo, counter-screen for streptokinase expression inhibitor project, dose response (AID 1915).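 Also: potency for reduction of bacterial viability or growth.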 It is filed as functional, organism-based. A general note: The purpose of a counterscreen is to sort out artefacts and off-target activity.
Data set [5] in a line: NIH-3T3 fibroblast cytotoxicity, dose response, cytotoxicity control, cell-based, fluorescence, Alamar Blue, secondary assay (AID 2327).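 Also: NIH-3T3 mouse fibroblasts cultured with fluconazole at 8 µg/mL.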 Format: functional. (In general: Resazurin is reduced to fluorescent resorufin, in cell work by metabolically active cells.)
Data set [6] can be described thus: NIH3T3 cell viability loss – ATP luminescence, mouse fibroblasts, counter-screen, dose response (AID 2010).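 Also: cells exposed to compound for about 90 hours before reading.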 Format: functional, cell-based.
For a further data set, the system named is H9c2. Briefly: cells. The settings on record: Rattus norvegicus, H9c2, Myocardium. It is filed as functional, cell-based.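 Also: confirmatory concentration-response retest of ultra-high-throughput screening hits for modulation of myocardial damage; cell death induced by hydrogen peroxide oxidative stress; compound pretreatment for 60 min then peroxide exposure for 2 h; potency is for protecting the cells against peroxide damage rather than for killing them.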
Data set [7] relates to Streptococcus sp. 'group A'. Briefly: Streptococcus pyogenes SK(-)GAS viability under kanamycin – luminescence, BacTiterGlo, confirmation, counter-screen for streptokinase expression inhibitor project, dose response (AID 1900). It is filed as functional, organism-based.
The next data set deals with Cytochrome P450 3A4 (Homo sapiens, UniProt P08684).
Chain of Cytochrome P450 3A4 (P08684 whole entry): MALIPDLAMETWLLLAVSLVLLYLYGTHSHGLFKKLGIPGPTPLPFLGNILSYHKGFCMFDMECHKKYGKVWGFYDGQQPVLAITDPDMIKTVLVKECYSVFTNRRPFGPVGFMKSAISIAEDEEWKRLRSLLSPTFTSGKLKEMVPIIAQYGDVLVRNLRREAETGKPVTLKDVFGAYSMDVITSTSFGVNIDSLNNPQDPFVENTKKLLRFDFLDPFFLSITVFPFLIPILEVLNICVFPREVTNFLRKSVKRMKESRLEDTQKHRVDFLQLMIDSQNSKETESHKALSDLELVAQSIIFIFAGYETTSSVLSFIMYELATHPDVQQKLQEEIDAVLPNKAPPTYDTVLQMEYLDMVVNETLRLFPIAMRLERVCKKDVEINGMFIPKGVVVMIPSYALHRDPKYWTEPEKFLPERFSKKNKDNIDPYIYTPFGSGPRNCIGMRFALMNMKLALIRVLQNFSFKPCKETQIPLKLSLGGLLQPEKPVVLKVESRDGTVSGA
The target in another data set is Large T antigen (Simian virus 40, UniProt P03070). It is filed as functional, Betapolyomavirus macacae.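 Also: Confirmatory-stage PubChem screen for compounds that inhibit SV40 T antigen.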
Chain of Large T antigen (P03070 whole entry): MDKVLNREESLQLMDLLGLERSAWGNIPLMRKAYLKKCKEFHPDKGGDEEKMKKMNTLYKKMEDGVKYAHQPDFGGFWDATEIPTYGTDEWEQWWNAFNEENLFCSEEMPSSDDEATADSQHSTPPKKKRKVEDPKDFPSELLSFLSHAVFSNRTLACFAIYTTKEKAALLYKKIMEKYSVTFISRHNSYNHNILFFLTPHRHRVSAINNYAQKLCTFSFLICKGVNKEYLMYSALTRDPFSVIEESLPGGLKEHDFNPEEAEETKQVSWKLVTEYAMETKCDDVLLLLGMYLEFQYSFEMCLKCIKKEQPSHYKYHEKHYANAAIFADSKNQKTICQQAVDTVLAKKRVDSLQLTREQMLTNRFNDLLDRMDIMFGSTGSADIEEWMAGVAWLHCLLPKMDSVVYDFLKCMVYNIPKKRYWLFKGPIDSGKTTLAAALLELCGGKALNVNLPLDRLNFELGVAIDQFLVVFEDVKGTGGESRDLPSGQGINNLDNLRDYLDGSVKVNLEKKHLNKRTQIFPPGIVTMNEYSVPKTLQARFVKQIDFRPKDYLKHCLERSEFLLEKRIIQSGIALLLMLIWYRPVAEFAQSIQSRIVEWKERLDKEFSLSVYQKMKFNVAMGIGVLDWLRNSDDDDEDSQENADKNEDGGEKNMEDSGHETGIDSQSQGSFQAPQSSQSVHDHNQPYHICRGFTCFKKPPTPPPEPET
In a further data set the target is Cytochrome P450 2D6 (Homo sapiens, UniProt P10635).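 Also: CYP2D6 member of a cytochrome P450 panel assay.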
Chain of Cytochrome P450 2D6 (P10635 whole entry): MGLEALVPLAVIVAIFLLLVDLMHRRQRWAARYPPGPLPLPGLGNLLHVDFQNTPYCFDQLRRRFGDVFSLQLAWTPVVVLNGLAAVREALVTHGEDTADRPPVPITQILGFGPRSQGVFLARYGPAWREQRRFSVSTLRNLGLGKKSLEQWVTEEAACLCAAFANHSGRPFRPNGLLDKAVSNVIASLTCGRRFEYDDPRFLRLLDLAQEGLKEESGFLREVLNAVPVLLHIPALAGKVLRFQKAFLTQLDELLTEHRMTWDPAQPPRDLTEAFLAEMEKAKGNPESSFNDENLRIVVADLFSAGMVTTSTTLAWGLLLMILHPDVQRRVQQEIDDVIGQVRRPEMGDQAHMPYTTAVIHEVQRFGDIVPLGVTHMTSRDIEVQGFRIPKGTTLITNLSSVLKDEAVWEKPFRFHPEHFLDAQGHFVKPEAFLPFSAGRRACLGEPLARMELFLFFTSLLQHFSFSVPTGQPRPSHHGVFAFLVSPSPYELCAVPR
For data set [8], the target named is FAD-linked sulfhydryl oxidase ALR (Homo sapiens, UniProt P55789). Briefly: ALR-catalysed DTT oxidation blockers – biochemical, H2O2 detection, luminescence, cherry-pick, dose response (AID 493248).
Chain of FAD-linked sulfhydryl oxidase ALR (P55789 whole entry): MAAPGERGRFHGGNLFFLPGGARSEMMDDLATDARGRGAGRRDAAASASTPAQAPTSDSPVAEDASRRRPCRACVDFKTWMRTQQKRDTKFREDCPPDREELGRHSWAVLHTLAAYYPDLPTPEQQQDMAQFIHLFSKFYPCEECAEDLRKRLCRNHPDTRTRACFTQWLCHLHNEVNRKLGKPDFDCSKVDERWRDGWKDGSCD
For data set [9], the system named is Vero. Briefly: cells. It is filed as functional, cell-based. The following applies: Chlorocebus sabaeus.
The target of a further data set is T3, Cytochrome P450 1A2 (Homo sapiens, UniProt P05177).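 Also: PubChem cytochrome P450 panel assay, CYP1A2 panel member.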
T3 sequence (P05177 whole entry): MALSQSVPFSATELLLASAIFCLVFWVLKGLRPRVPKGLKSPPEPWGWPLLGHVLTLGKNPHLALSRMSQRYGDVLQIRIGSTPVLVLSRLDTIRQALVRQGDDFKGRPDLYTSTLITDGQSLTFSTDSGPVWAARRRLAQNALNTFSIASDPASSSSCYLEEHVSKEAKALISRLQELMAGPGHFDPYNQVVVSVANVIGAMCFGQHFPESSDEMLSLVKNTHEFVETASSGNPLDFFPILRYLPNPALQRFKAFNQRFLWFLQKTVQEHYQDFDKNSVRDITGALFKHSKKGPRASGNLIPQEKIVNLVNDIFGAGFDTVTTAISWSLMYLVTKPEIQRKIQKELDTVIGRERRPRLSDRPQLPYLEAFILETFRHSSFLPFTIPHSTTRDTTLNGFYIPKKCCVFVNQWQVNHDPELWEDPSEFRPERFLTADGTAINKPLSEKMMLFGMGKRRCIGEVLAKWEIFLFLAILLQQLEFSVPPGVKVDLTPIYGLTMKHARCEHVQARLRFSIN

Data set [10] has as its target T4, Calpain-2 catalytic subunit (Sus scrofa, UniProt P43367).
T4 sequence (P43367 whole entry): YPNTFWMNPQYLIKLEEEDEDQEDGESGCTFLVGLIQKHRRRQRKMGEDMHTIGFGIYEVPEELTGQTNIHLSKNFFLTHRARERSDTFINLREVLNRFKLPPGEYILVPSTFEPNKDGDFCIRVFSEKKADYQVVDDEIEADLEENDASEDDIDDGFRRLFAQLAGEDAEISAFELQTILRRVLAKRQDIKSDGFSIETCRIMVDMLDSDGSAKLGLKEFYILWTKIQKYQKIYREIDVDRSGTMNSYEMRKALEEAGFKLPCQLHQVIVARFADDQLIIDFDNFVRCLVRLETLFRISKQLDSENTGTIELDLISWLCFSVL
Briefly: m-calpain protease blockers, concentration series – biochemical, fluorogenic peptide substrate, dose response (AID 1420). Format: functional.

The nature of data set [11]: Luminescence Cell-Based Dose Confirmation HTS to Identify Activators of 5'UTR Stem-Loop Driven Alpha-Synuclein mRNA Translation in H4 Neuroglioblastoma Cells. [Related pubchem assays: 1829 (Project Summary), 1814 (Primary HTS)]. It is filed as functional.
Data set [12] can be described thus: Luminescence Cell-Based Dose Response HTS to Identify Activators of Luciferase Translation or Activity in H4 […] Cells. [Related pubchem assays: 1829 (Project Summary), 1814 (Primary HTS)]. Format: functional.
The test system of the next data set is H4. Briefly: Luminescence Cell-Based Dose Response HTS to Identify Activators of 5'UTR Stem-Loop Driven Prion Protein mRNA Translation in H4 Neuroglioblastoma Cells. [Related pubchem assays: 1829 (Project Summary), 1814 (Primary HTS)]. It is filed as functional. The settings on record: Homo sapiens.

SMILES strings stand for the structures. The source made the active and inactive calls. Some results are limits rather than exact numbers.

Consider `O=C(COC(=O)c1ccc(O)cc1)NCCCc1ccccc1`, for which the half-inhibitory concentration (IC50) was > 50 µM (not active) against Prothrombin and > 50 µM (inactive) on Coagulation factor XII.
As for `COc1cc(NS(=O)(=O)c2ccc3ccccc3c2)c2ncccc2c1`, the EC50 in data set [1] is 0.668 µM (active); in data set [2] it was 3.98 µM (active); in data set [3] it was 0.342 µM (active); in the data set on Streptococcus, 7.28 µM (active); in data set [5] it was > 160 µM (inactive); in [6], 1.09 µM (active). Moreover, the 50% effective concentration (EC50) in data set [7] was 0.412 µM (active). In addition, in the data set with Vero [4], the CC50 was > 25 µM (active). In addition, in the data set on H9c2, the IC50 was > 79 µM (inactive).
In the case of `CCCc1nnc(NC(=O)CCC(=O)N2CCN(c3ccccn3)CC2)s1`, at Cytochrome P450 3A4, the AC50 entry is “inconclusive”.
In the case of `COc1ccc(NC2CCCN(C(=O)c3cccc(C(F)(F)F)c3)C2)cc1OC` (centres undefined), the IC50 on Large T antigen is 44.1 µM (active).
As to `N=C(NOC(=O)c1ccc(Cl)c([N+](=O)[O-])c1)c1ccccn1`, at Coagulation factor XII, the IC50 is > 50 µM (inactive).
As to `COc1ccc(-c2nc3cnc(N4CCN(C)CC4)nc3n(CCc3ccccc3)c2=O)cc1`, the AC50 result on Cytochrome P450 3A4 was “inconclusive”; on Cytochrome P450 2D6, 25.1 µM (inconclusive).
For the compound `N#Cc1ccsc1NC(=O)CN1CCN(c2ccc(O)cc2)CC1`, on Large T antigen, the IC50 was 6.44 µM (active).
With `CCN(CC)c1ccc(N/C=C2/C(=O)NC(=O)N(c3ccccc3C)C2=O)cc1`, the IC50 at Large T antigen is > 100 µM (active). Also, the half-maximal activity concentration (AC50) in [8] is 1.46 µM (active).
In the case of `O=C(c1cccc(S(=O)(=O)N2CCc3ccccc32)c1)N1CCN(c2ccccn2)CC1`, the CC50 in the data set on Vero [4] is 18.9 µM (active). Besides, the IC50 with Vero [9] was 6.82 µM (active).
Turning to `COc1cc(C(=O)N2CCN(C(=O)c3ccccc3)CC2)cc(OC)c1OC`, the half-maximal activity concentration (AC50) on Cytochrome P450 1A2 is 2.51 µM (inconclusive); on Cytochrome P450 3A4 it was “inconclusive”.
Turning to `N#Cc1ccc(C(=O)Nc2ccc(N3CCN(C(=O)c4ccco4)CC3)cc2)c(F)c1`, the AC50 entry on Cytochrome P450 3A4 is recorded as “inconclusive”.
With `Cc1cc(C)nc(N=C(N)N(Cc2ccccc2)Cc2ccccc2)n1`, the EC50 in data set [1] was 1.5 µM (active). The IC50 in [10] was > 50 µM (not active).
Regarding `COc1ccc(S(=O)(=O)N2CCCC2C(=O)Nn2cnnc2)cc1` (centres undefined), on Coagulation factor XII, the IC50 is > 50 µM (inactive).
For `C/C(N)=C(/C#N)C(=O)COC(=O)CC12CC3CC(CC(C3)C1)C2`, the 50% effective concentration (EC50) in data set [1] was 1.5 µM (active). Also, the concentration for half-maximal inhibition (IC50) in data set [10] is reported as 12 µM (not active).
With `CCOC(=O)/C(C#N)=C/N=c1/ccc(C)cn1C`, the EC50 in [11] was 53.5 µM (active); in data set [12] it was 23.8 µM (active); in the data set with H4, > 120 µM (not active). Further, at Coagulation factor XII, the half-inhibitory concentration (IC50) is > 50 µM (inconclusive).
For `C/C(=N/OCO/N=C(\C)c1ccccc1)c1ccccc1`, the half-inhibitory concentration (IC50) in the data set on Vero [9] was > 25 µM (active).

The record behind these values is ChEMBL document CHEMBL1201862, “PubChem BioAssay data set” (2004).
